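Compound exposure: 48 hours, 5 concentrations, 96-well plates. At the GI50, growth is halved.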 Activity calls are given as the source filed them. Cut-off read from the data, not from the text of the source: active = GI50 up to about 1.1 µM and inactive = higher.
Legend:
Assay in all cases: NCI-60 cell line screen, 48 h
[1] = tested on: U-251
[2] = tested on: SNB-19
[3] = tested on: RPMI-8226
[4] = tested on: HOP-18
[5] = tested on: A549
[6] = tested on: SNB-78
[7] = tested on: HOP-62
[8] = tested on: Malme-3M
[9] = tested on: SR
[10] = tested on: HOP-92
[11] = tested on: SK-OV-3
[12] = tested on: KM12
[13] = tested on: M14
[14] = tested on: SF-268
[15] = tested on: NCI-H23
[16] = tested on: HCT-15
[17] = tested on: SF-295
[18] = tested on: 786-0
[19] = tested on: A498
[20] = tested on: TK-10
[21] = tested on: COLO 205
[22] = tested on: NCI-H460
[23] = tested on: SK-MEL-5
[24] = tested on: SW-620
[25] = tested on: DMS-114
[26] = tested on: HCC 2998
[27] = tested on: HL-60
[28] = tested on: DLD-1
[29] = tested on: OVCAR-5
[30] = tested on: SK-MEL-2
[31] = tested on: RXF 393
[32] = tested on: SN12C
[33] = tested on: CCRF-CEM
[34] = tested on: LOX IMVI
[35] = tested on: HCT-116
[36] = tested on: HT-29
[37] = tested on: SNB-75
[38] = tested on: DMS-273
[39] = tested on: SK-MEL-28
[40] = tested on: KM-20L2
[41] = tested on: UACC-257
[42] = tested on: LXFL 529
[43] = tested on: ACHN
[44] = tested on: XF498
[45] = tested on: EKVX
[46] = tested on: NCI-H522
[47] = tested on: M19-MEL
[48] = tested on: UACC-62
[49] = tested on: IGROV-1
[50] = tested on: OVCAR-3
[51] = tested on: MOLT-4
[52] = tested on: CAKI-1
[53] = tested on: NCI-H226
[54] = tested on: SF-539
[55] = tested on: UO-31
[56] = tested on: OVCAR-4
[57] = tested on: K562
[58] = tested on: OVCAR-8

With `Sc1nnc(-c2cccnc2)[nH]1` the GI50 [1] was > 100 µM (inactive), the GI50 [2] was > 100 µM (inactive) and the GI50 [3] was > 100 µM (inactive). For the same compound, the GI50 [4] was > 100 µM (inactive), the GI50 [5] was > 100 µM (inactive) and the GI50 [6] was > 100 µM (inactive). The GI50 [7] was > 100 µM (inactive), the GI50 [8] was > 100 µM (inactive) and the GI50 [9] was > 100 µM (inactive). For the same compound, the GI50 [10] was > 100 µM (inactive), the GI50 [11] was > 100 µM (inactive) and the GI50 [12] was > 100 µM (inactive). For the same compound, the GI50 [13] was > 100 µM (inactive), the GI50 [14] was > 100 µM (inactive) and the GI50 [15] was > 100 µM (inactive). For the same compound, the GI50 [16] was > 100 µM, the GI50 [17] was > 100 µM (inactive) and the GI50 [18] was > 100 µM (inactive). For the same compound, the GI50 [19] was > 100 µM (inactive), the GI50 [20] was > 100 µM (inactive) and the GI50 [21] was > 100 µM (inactive). The GI50 [22] was > 100 µM (inactive), the GI50 [23] was > 100 µM (inactive) and the GI50 [24] was > 100 µM (inactive). The GI50 [25] was > 100 µM (inactive), the GI50 [26] was > 100 µM (inactive) and the GI50 [27] was > 100 µM (inactive). The GI50 [28] was > 100 µM (inactive), the GI50 [29] was > 100 µM (inactive) and the GI50 [30] was > 100 µM (inactive). For the same compound, the GI50 [31] was > 100 µM (inactive), the GI50 [32] was > 100 µM (inactive) and the GI50 [33] was > 100 µM (inactive). For the same compound, the GI50 [34] was > 100 µM (inactive), the GI50 [35] was > 100 µM (inactive) and the GI50 [36] was > 100 µM (inactive). For the same compound, the GI50 [37] was > 100 µM (inactive), the GI50 [38] was > 100 µM (inactive) and the GI50 [39] was > 100 µM (inactive). For the same compound, the GI50 [40] was > 100 µM (inactive), the GI50 [41] was > 100 µM (inactive) and the GI50 [42] was > 100 µM (inactive). The GI50 [43] was > 100 µM (inactive) and the GI50 [44] was > 100 µM (inactive).

`N#C/C(=C1\OC(=N)C(c2ccc(Cl)cc2)=C1O)c1ccc(Cl)cc1` was tested, and the GI50 [45] was 17.7 µM (inactive), the GI50 [1] was 15.3 µM (inactive) and the GI50 [2] was 19.6 µM (inactive). For the same compound, the GI50 [46] was 12 µM (inactive), the GI50 [3] was 19 µM (inactive) and the GI50 [4] was 16.9 µM (inactive). For the same compound, the GI50 [47] was 15.1 µM (inactive), the GI50 [5] was 20.5 µM (inactive) and the GI50 [6] was 12.8 µM (inactive). For the same compound, the GI50 [7] was 19.1 µM (inactive), the GI50 [8] was 19.1 µM (inactive) and the GI50 [9] was 18.7 µM (inactive). For the same compound, the GI50 [10] was 17.9 µM (inactive), the GI50 [48] was 14.2 µM (inactive) and the GI50 [11] was 37.8 µM (inactive). For the same compound, the GI50 [12] was 16.6 µM (inactive), the GI50 [49] was 15.7 µM (inactive) and the GI50 [13] was 15.2 µM (inactive). The GI50 [14] was 36.6 µM (inactive), the GI50 [15] was 13.6 µM (inactive) and the GI50 [17] was 15.8 µM (inactive). For the same compound, the GI50 [18] was 16 µM (inactive), the GI50 [19] was 17.2 µM (inactive) and the GI50 [50] was 14.8 µM (inactive). The GI50 [20] was 26.4 µM (inactive), the GI50 [51] was 17.3 µM (inactive) and the GI50 [52] was 17.3 µM (inactive). The GI50 [21] was 18.8 µM (inactive), the GI50 [22] was 17.3 µM (inactive) and the GI50 [53] was 10 µM (inactive). The GI50 [54] was 14.5 µM (inactive), the GI50 [24] was 13.2 µM (inactive) and the GI50 [25] was 14.8 µM (inactive). For the same compound, the GI50 [26] was 17.1 µM (inactive), the GI50 [27] was 13.3 µM (inactive) and the GI50 [28] was 15.3 µM (inactive). For the same compound, the GI50 [29] was 2.99 µM (inactive), the GI50 [31] was 12.4 µM (inactive) and the GI50 [55] was 16.2 µM (inactive). The GI50 [56] was 15.9 µM (inactive), the GI50 [32] was 11 µM (inactive) and the GI50 [33] was 12.8 µM (inactive). The GI50 [57] was 23.5 µM (inactive), the GI50 [34] was 16 µM (inactive) and the GI50 [35] was 17.3 µM (inactive). For the same compound, the GI50 [36] was 18.9 µM (inactive), the GI50 [37] was 17.5 µM (inactive) and the GI50 [38] was 13.5 µM (inactive). For the same compound, the GI50 [39] was 26.5 µM (inactive), the GI50 [40] was 18.4 µM (inactive) and the GI50 [41] was 15 µM (inactive). For the same compound, the GI50 [58] was 13.5 µM (inactive), the GI50 [42] was 11.7 µM (inactive) and the GI50 [43] was 17.6 µM (inactive).

Reference: ChEMBL document CHEMBL1201862, “PubChem BioAssay data set” (2004)
